Patent US6531604B2, “Benzothiepine derivatives, their production and use” (Takeda Chemical Industries, Ltd., priority 1998, dated 2003)

The molecules below were run on interstitial cells prepared from the femur bone marrow of a normal rat (assay: Osteogenesis promoting effect: alkaline phosphatase activity in cultured rat bone marrow interstitial cells). Details: test compound 10^−5 M, added from 2nd day of culture, cultured additional 5 days; mean ± S.E. (n = 4); control 0.150 ± 0.009; ** p < 0.01 vs control.
Format: cell-based
Method: Osteogenesis promoting effect:
Using the interstitial cells prepared from the femur bone marrow of a normal rat, an alkaline phosphatase activity was measured as an index of osteogenesis. Briefly, according to the method of Maniatopoulos et al. [Cell Tissue Research, volume 254, P.317 (1988)], the interstitial cells were prepared from the femur bone of a Sprague-Dawley male rat, 7 weeks of age, and cultured in an α-MEM (minimum essential medium) solution containing dexamethasone (10^−7M) and β-glycerophosphoric acid (10^−2M) in order to generate calcified bony tissue. One week later, the confluent primary cells were treated with 0.25% trypsin-0.2% EDTA solution, recovered, and subcultured on a culture plate at a cell density of […], (culture day 0). From the 2nd day of the culture, a test compound (10^−5 M) was added to the above culture solution, and cultured for additional 5 days. The cells were washed with a phosphate buffer, and after addition of 0.2% Nonidet P-40, they were homogenized and centrifuged at 3,000 rpm for 10 minutes. The supernatant was measured for an alkaline phosphatase activity according to the method of Lowry et al. [Journal of Biological Chemistry, volume 207, P.19 (1954)]. […] Statistical analysis was performed by means of the Student's t-test.

Structure (SMILES)	Alkaline phosphatase activity (A405)
C[C@@H]1S[C@@H](C(=O)Nc2ccc(Cn3oc(=O)[nH]c3=O)cc2)Cc2cc3c(cc2C1=O)OCO3 [Example no. 11, (2R,4S)-N-[4-(3,5-Dioxo-1,2,4-oxadiazolidin-2-ylmethyl)phenyl]-1,2,4,5-tetrahydro-7,8-methylenedioxy-4-methyl-5-oxo-3-benzothiepine-2-carboxamide]	0.399 ± 0.069** A405
C[C@@H]1S[C@@H](C(=O)Nc2ccc(CN3CCOCC3)cc2)Cc2cc3c(cc2C1=O)OCO3 [Example no. 4, (2R,4S)-N-[4-(4-Morpholinylmethyl)phenyl]-1,2,4,5-tetrahydro-7,8-methylenedioxy-4-methyl-5-oxo-3-benzothiepine-2-carboxamide]	0.394 ± 0.036** A405
C[C@@H]1S[C@@H](C(=O)Nc2ccc(CC3SC(=O)NC3=O)cc2)Cc2cc3c(cc2C1=O)OCO3 (stereo partly drawn) [Example no. 1, (2R,4S)-N-[4-(2,4-Dioxothiazolidin-5-yl-methyl)phenyl]-1,2,4,5-tetrahydro-7,8-methylenedioxy-4-methyl-5-oxo-3-benzothiepine-2-carboxamide]	0.489 ± 0.050** A405
C[C@@H]1S[C@@H](C(=O)Nc2ccc(CC3OC(=O)NC3=O)cc2)Cc2cc3c(cc2C1=O)OCO3 (stereo partly drawn) [Example no. 10, (2R,4S)-N-[4-(2,4-Dioxo-oxazolidin-5-yl-methyl)phenyl]-1,2,4,5-tetrahydro-7,8-methylenedioxy-4-methyl-5-oxo-3-benzothiepine-2-carboxamide]	0.535 ± 0.069** A405
